# Tests used:
# Primary Mouse Neuron = assay: CCK8 assay, primary culture neurons; format: cell-based
# Method: (§1) The human glioblastoma cell lines U87MG (HTB-14), T98G (CRL-1690), and A172 (CRL-1620) were provided by the American Type Culture Collection (Manassas, VA, USA). The patient-derived cell line PT#3 was purified under the approval of the Institutional Review Board of Taipei Medical University (TMU) (No. 201006011). The murine astrocytoma cell line CT-2A (SCC194) was purchased from Merch Millipore (MA, USA). TMZ-resistant cell lines were established as described previously.[40] All cell lines were cultured in Dulbecco’s modified Eagle’s medium basal medium (Cat# 10-013-CM, CORNING, MA, USA), supplemented with 10% fetal bovine serum (Cat# 12676029, Thermo Fisher Scientific, MA, USA), 100 units/mL penicillin, and 100 μg/mL streptomycin (Cat# 15140122, Thermo Fisher Scientific) at 37 °C in the environment of 95% air and 5% carbon dioxide and maintained resistant characteristic with […] of TMZ (Cat# HY-17364, MedChemExpress, NJ, USA). Primary cultured astrocytes and neurons were derived from E17 embryonic mice. […]
# (§2) Cell viability and drug cytotoxicity were determined by a CCK-8 kit (Cell Counting Kit-8, CK04-13, MD, USA) (CCK8, C0005, Target Molecule Corp., MA, USA) reagent. […] Finally, the OD was 450 nm absorbance and calculated for cell viability.
# HDAC2 = biological target: T1, HDAC2 (Homo sapiens, UniProt Q92769); assay: HDAC enzyme inhibition assay, HDAC2; format: biochemical; conditions: 10-dose, 3-fold serial dilution starting at 10 μM
# T1 construct: purchased Reaction Biology Corporation, Malvern, PA (contract assay service)
# T1 sequence (Q92769 whole entry): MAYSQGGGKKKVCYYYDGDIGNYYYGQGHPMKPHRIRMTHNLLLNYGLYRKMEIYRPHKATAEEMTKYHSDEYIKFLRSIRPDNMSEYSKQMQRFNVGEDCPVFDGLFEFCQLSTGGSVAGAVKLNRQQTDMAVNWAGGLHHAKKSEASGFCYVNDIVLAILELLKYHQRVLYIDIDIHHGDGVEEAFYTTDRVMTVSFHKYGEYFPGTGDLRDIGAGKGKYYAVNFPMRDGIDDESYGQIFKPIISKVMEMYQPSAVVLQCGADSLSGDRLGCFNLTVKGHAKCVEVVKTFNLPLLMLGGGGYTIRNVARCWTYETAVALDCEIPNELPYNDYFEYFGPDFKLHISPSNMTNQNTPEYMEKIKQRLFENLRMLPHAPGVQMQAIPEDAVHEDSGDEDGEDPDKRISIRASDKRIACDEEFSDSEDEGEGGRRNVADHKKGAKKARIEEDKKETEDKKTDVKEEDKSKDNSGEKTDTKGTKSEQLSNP
# Method: (§3) Enzyme inhibition assays were performed by the Reaction Biology Corporation, Malvern, PA (http://www.reactionbiology.com).
# HDAC1 = biological target: T2, HDAC1 (Homo sapiens, UniProt Q13547); assay: HDAC enzyme inhibition assay, HDAC1; format: biochemical; conditions: 10-dose, 3-fold serial dilution starting at 10 μM
# T2 construct: purchased Reaction Biology Corporation, Malvern, PA (contract assay service)
# T2 sequence (Q13547 whole entry): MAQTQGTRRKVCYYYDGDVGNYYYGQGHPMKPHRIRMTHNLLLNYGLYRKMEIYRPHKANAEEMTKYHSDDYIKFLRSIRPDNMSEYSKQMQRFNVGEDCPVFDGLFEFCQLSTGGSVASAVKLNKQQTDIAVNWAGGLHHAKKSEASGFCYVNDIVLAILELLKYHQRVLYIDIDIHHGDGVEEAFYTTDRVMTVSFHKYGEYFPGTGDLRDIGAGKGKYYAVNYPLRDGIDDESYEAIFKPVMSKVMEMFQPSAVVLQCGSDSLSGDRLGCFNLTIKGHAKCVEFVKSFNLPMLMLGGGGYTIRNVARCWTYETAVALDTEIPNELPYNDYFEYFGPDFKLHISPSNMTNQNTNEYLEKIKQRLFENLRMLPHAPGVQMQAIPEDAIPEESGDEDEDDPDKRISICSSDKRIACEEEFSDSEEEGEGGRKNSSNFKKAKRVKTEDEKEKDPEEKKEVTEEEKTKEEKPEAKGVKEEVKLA
# Method: as §3
# [1] = tested on: TMZ-resistant GBM cell lines A172R and PT#3R; assay: MTT cytotoxicity assay, TMZ-resistant GBM lines (statement in words); format: cell-based; conditions: 0 to 80 μM, 72 h
# Method: We utilized linezolid as the structural foundation to confirm the cytotoxicity of linezolid-conjugated functional domains against glioblastoma (GBM). We combined it with the binding structures of anti-histone deacetylases (HDACs) (denoted as compounds 1–5 and 11–14), antitubulin (compound 6), anticyclooxygenase (COX) (compound 7), and anti-heat shock protein 90 (Hsp90) (compounds 8–10). These constructs were then administered to TMZ-resistant GBM cell lines A172R and PT#3R at concentrations ranging from 0 to 80 μM over 72 h. The cytotoxic effects of these compounds were assessed using the MTT assay (Table 1 and Supporting Information IV). […] Given the remarkable cytotoxicity of compound 1 on both A172-R and PT#3-R TMZ-resistant cells, this study subsequently focused on compound 1 for further in-depth investigation and mechanistic exploration. To validate that the cytotoxic effect of compound 1 on GBM is not attributed to linezolid alone, we separately treated the TMZ-resistant GBM cell line PT#3-R with compound 1 and linezolid. […] This confirms that the cytotoxicity of compound 1 against GBM is primarily attributable to the inhibitory structure of linezolid-conjugated HDAC (Figure 2A). Furthermore, we compared the cytotoxic effects of compound 1 on various wild-type brain tumor cell lines, including U87MG, PT#3, LN229 GBM cells, and CT-2A mouse astrocyte cell line as well as TMZ-resistant variants cell lines, including U87MG-R, PT#3-R, CT-2A-R, and T98G (MGMT-positive). […] Additionally, we further confirmed the efficacy of compound 1 in GBM treatment.
# MTT assay was employed to evaluate the cytotoxicity of the synthesized compound against resistant GBM cells. The MTT (3-(4,5-dimethylthiazol-2-yl)-2,5-diphenyltetrazolium bromide, catalog no. AM0818-0005) powder was purchased from BIONOVAS (Ontario, Canada). The MTT was prepared at 10 mg/mL stock with ultrapure water and then stored at −20 °C. […] Finally, 100 μL of the mixture was transferred to measure the OD 595 nm absorbance.
# HDAC8 = biological target: T3, HDAC8 (Homo sapiens, UniProt Q9BY41); assay: HDAC enzyme inhibition assay, HDAC8; format: biochemical; conditions: 10-dose, 3-fold serial dilution starting at 10 μM
# T3 construct: purchased Reaction Biology Corporation, Malvern, PA (contract assay service)
# T3 sequence (Q9BY41 1-377): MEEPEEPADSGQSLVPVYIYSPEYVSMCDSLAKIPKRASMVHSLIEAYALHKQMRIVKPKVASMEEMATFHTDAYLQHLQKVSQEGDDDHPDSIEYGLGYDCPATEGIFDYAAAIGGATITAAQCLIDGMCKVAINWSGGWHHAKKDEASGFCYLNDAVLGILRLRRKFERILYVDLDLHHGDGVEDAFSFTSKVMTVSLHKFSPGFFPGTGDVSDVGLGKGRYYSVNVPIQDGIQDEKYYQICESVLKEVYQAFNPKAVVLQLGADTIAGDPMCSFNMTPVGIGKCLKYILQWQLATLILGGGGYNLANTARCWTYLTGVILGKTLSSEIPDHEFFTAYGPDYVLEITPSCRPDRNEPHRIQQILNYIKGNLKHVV
# Method: as §3
# [2] = tested on: Rad51 protein in PT#3R GBM cells; assay: Immunoprecipitation and ubiquitination assay; format: cell-based, human; conditions: 24 h, IP with anti-Rad51 antibody
# [3] = tested on: CT-2A mouse astrocyte cell line; assay: CCK8 cell proliferation assay, CT-2A; format: cell-based; conditions: CCK8, 72 h
# Method: (§4) Cell viability and drug cytotoxicity were determined by a CCK-8 kit (Cell Counting Kit-8, CK04-13, MD, USA) (CCK8, C0005, Target Molecule Corp., MA, USA) reagent. Cells were seeded 2 × 10^3 per well in the 96-well plate for 24 h, followed by treating at different concentrations of compounds for 72 h. Before the experiment, CCK8 was 10-fold diluted with the culture medium and then incubated with cells for 30 min. Finally, the OD was 450 nm absorbance and calculated for cell viability.
# Primary Mouse Astrocyte = assay: CCK8 assay, primary culture astrocytes; format: cell-based
# Method: as §1, §2
# CT-2A-R = assay: CCK8 cell proliferation assay, CT-2A-R; format: cell-based; conditions: Mus musculus, CCK8, 72 h
# Method: as §4
# U87MG = assay: CCK8 cell proliferation assay, U87MG; format: cell-based; conditions: Homo sapiens, U-87 MG, CCK8, 72 h
# Method: as §4
smiles,measurement,setting,value
"O=C(/C=C/c1ccc(CNC[C@H]2CN(c3ccc(N4CCOCC4)c(F)c3)C(=O)O2)cc1)NO [compound 1, (S,E)-3-(4-((((3-(3-Fluoro-4-morpholinophenyl)-2-oxooxazolidin-5-yl)methyl)ami-no)methyl)phenyl)-N-hydroxyacrylamide]",IC50,Primary Mouse Neuron,65.9 ± 4 µM
same,IC50,HDAC2,2.81 µM
same,IC50,HDAC1,1.09 µM
same,cytotoxicity in TMZ-resistant GBM,[1],exhibited the capacity to induce cytotoxicity
same,IC50,HDAC8,0.447 µM
same,Rad51 ubiquitination,[2],significant increase in Rad51 ubiquitination
same,IC50,[3],5.88 ± 0.63 µM
same,IC50,Primary Mouse Astrocyte,143 ± 7.9 µM
same,IC50,CT-2A-R,8.27 ± 1.39 µM
same,IC50,U87MG,13.5 ± 0.54 µM
